Measurements taken from PubChem BioAssay AID1695 (PCMD, 2009).
Active and inactive are the calls of the source. No rule for the calls is given here.

biological target: dTDP-4-dehydrorhamnose reductase (Mycobacterium tuberculosis (strain ATCC 25618 / H37Rv)) + dTDP-4-dehydrorhamnose 3,5-epimerase (Mycobacterium tuberculosis (strain ATCC 25618 / H37Rv)) (UniProt P9WH09+P9WH11); assay: dTDP dehydrorhamnose epimerase and reductase, coupled enzyme assay, Mycobacterium tuberculosis, IC50 (AID 1695); conditions: coupled RmlC/RmlD enzyme assay
Sequence (P9WH09 whole entry, looked up): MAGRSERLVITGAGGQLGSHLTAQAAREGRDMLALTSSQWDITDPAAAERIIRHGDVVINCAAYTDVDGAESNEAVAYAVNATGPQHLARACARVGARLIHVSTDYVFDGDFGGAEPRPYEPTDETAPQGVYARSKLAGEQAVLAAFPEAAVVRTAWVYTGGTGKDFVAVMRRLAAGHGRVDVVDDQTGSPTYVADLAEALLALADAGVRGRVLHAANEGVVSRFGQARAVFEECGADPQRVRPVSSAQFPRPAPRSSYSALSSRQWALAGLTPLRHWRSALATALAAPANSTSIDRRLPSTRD
Sequence (P9WH11 whole entry, looked up): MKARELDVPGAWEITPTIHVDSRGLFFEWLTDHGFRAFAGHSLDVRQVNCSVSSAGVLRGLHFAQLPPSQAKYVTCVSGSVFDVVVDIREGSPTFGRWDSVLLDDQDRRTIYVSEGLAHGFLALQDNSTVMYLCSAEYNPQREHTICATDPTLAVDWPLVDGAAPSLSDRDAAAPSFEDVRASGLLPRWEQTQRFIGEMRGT

Structure (SMILES) | IC50
CC1=C(C#N)C(c2cccnc2)C2=C(CCCC2=O)N1 (stereo unspecified) | inactive
CCCCCCc1cc2cc(-c3nnc(-c4ccccc4OC)o3)c(=O)oc2cc1O | inactive
COc1ccc(OC)c(/C=N/NC(=O)CC2C(=O)NN=C2C)c1 (stereo unspecified) | inactive
COc1ccccc1N=c1oc2cc(O)ccc2cc1C(N)=O | inactive
COC(=O)C1=CNC=C(C(=O)OC)C1c1cccc(OC)c1 | inactive
COC(=O)/C(=C/Nc1cccc2ccccc12)[N+](=O)[O-] | inactive
CC1=C(C#N)C(c2cccnc2)C2=C(CC(C)(C)CC2=O)N1 (stereo unspecified) | inactive
C=CCOC(=O)C1=C(C)NC(SCC(=O)NC(=O)OCC)=C(C#N)C1c1cccnc1 (stereo unspecified) | inactive
CCOC(=O)C1=C(CSc2nc(-c3ccccc3)ccc2C#N)OC(N)=C(C#N)C1c1cccnc1 (stereo unspecified) | inactive
O=C1CCC(=O)N1c1nc2nc(-c3ccccc3)cc(-c3ccccc3)n2n1 | inactive
CC1=CC(c2ccccc2)n2nc(NS(=O)(=O)c3ccc(C)cc3)nc2N1 (stereo unspecified) | inactive
